Results: the supplement of paper PMC11208160

Assay: recombinant UMI read abundance after kanamycin selection (control-corrected) (log10(CPM+1)); higher = more efficient recombination; extreme values may be limits of the assay; sequences stand for … in AGTGCAGAGAAAATCGGCCAGTTTTCTCTGCCTGCAGTCCGCATGCCGTGGGACCCCTTGGGTTCTAACCTGTTGCCTAGATTTATGCAGCGGACTGCCTTTCTCCCAAAGTGATAAACCGG…AGGTTGGTTTCACT; site = the 11-nt donor
Outline: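 Values, expressed as log10(CPM+1), derive from recombinant UMI counts converted to CPM, averaged across replicates and scaled by control-derived factors. Plating was with IPTG (0.07 mM) plus kanamycin or unselected, two replicates each. The screen pooled donor and donor-binding-loop pairs for the IS621 bridge recombinase in Escherichia coli.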
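Further: IS621 bridge recombinase in Escherichia coli cells against a fixed T5 target plasmid.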

In order of rising “recombinant UMI read abundance (log10)” value:
1. GAGACGCCATGGACCGGTTTTCCCGGTAATCCGTATTTGCC (site GAGACGCCTGG)  0
2. GAGGTCACATGGACCGGTTTTCCCGGTAATCCGTATTTGAT (site GAGTTCACTAT)  0
3. GAGTATCCATGGACCGGTTTTCCCGGTAATCCGTATTTGCT (site GAATATCCTAG)  0
4. GAGTATCCATGGACCGGTTTTCCCGGTAATCCGTATTTGCT (site GATTATCCTAG)  0
5. GAGTCCTCATGGACCGGTTTTCCCGGTAATCCGTATTTGCC (site GAGTCCTCTGG)  0
6. GAGTGCCCATGGACCGGTTTTCCCGGTAATCCGTATTTGCC (site GAGTGCCCTGG)  0
7. GATAATCCATGGACCGGTTTTCCCGGTAATCCGTATTTGCT (site GATAATCCTAG)  0
8. GATAATCCATGGACCGGTTTTCCCGGTAATCCGTATTTGCT (site GATCATCCTAG)  0
9. GATAATCCATGGACCGGTTTTCCCGGTAATCCGTATTTGCT (site GATGATCCTAG)  0
10. GATAATCCATGGACCGGTTTTCCCGGTAATCCGTATTTGCT (site GATTATCCTAG)  0
11. GATAGAACATGGACCGGTTTTCCCGGTAATCCGTATTTGGC (site GCTAGAACTGC)  0
12. GATAGAACATGGACCGGTTTTCCCGGTAATCCGTATTTGGC (site GGTAGAACTGC)  0
13. GATAGAACATGGACCGGTTTTCCCGGTAATCCGTATTTGGC (site GTTAGAACTGC)  0
14. GATCGGACATGGACCGGTTTTCCCGGTAATCCGTATTTGAC (site GATAGGACTGT)  0
15. GATCGGACATGGACCGGTTTTCCCGGTAATCCGTATTTGAC (site GATGGGACTGT)  0
16. GATCGGACATGGACCGGTTTTCCCGGTAATCCGTATTTGAC (site GATTGGACTGT)  0
17. GATTAGACATGGACCGGTTTTCCCGGTAATCCGTATTTGAC (site GATTCGACTGT)  0
18. GATTAGACATGGACCGGTTTTCCCGGTAATCCGTATTTGAC (site GATTGGACTGT)  0
19. GAGCCTTCATGGACCGGTTTTCCCGGTAATCCGTATTTGGT (site TAGCCTTCTAC)  0.0029
20. GAGGTACCATGGACCGGTTTTCCCGGTAATCCGTATTTGTA (site GAGGTACCTTA)  0.00435
21. GATCAGCCATGGACCGGTTTTCCCGGTAATCCGTATTTGGT (site GATCAGCCTAC)  0.00497
22. GATCTCACATGGACCGGTTTTCCCGGTAATCCGTATTTGAT (site GAGCTCACTAT)  0.00697
23. GAGTCGACATGGACCGGTTTTCCCGGTAATCCGTATTTGGG (site TAGTCGACTCC)  0.0071
24. GAGCTCACATGGACCGGTTTTCCCGGTAATCCGTATTTGAC (site GAGCTCACTTT)  0.00766
25. GAGGTCACATGGACCGGTTTTCCCGGTAATCCGTATTTGAT (site GAGCTCACTAT)  0.00889
26. GAGCTCACATGGACCGGTTTTCCCGGTAATCCGTATTTGTT (site GAGCTCACTAC)  0.0125
27. GAGTCGACATGGACCGGTTTTCCCGGTAATCCGTATTTGGG (site CAGTCGACTCC)  0.0177
28. GAGTCGACATGGACCGGTTTTCCCGGTAATCCGTATTTGGG (site GAGTCGACTCC)  0.044
29. GATCTTCCATGGACCGGTTTTCCCGGTAATCCGTATTTGAT (site GATCTTCCTAT)  0.048
30. GATCTCACATGGACCGGTTTTCCCGGTAATCCGTATTTGAT (site GACCTCACTAT)  0.0659
31. GAGTCGACATGGACCGGTTTTCCCGGTAATCCGTATTTGGG (site AAGTCGACTCC)  0.257
32. GATGCAACATGGACCGGTTTTCCCGGTAATCCGTATTTGAT (site GATGCAACTAT)  0.357
33. GATCAGACATGGACCGGTTTTCCCGGTAATCCGTATTTGAA (site GATCAGACTTT)  0.431
34. GAGCTCACATGGACCGGTTTTCCCGGTAATCCGTATTTGAC (site GAGCTCACTCT)  0.476
35. GAGTATCCATGGACCGGTTTTCCCGGTAATCCGTATTTGCT (site GACTATCCTAG)  0.506
36. GAGTTTCCATGGACCGGTTTTCCCGGTAATCCGTATTTGCG (site GAGTTTCCTCG)  0.572
37. GATCTCACATGGACCGGTTTTCCCGGTAATCCGTATTTGAT (site GATCTCACTAT)  0.574
38. GAGCACACATGGACCGGTTTTCCCGGTAATCCGTATTTGGA (site GAGCACACTTC)  0.594
39. GATCAGCCATGGACCGGTTTTCCCGGTAATCCGTATTTGCC (site GATCAGCCTGG)  0.649
40. GAGCCTTCATGGACCGGTTTTCCCGGTAATCCGTATTTGGT (site AAGCCTTCTAC)  0.678
41. GAGTATCCATGGACCGGTTTTCCCGGTAATCCGTATTTGCT (site GAGTATCCTAG)  0.75
42. GAGCCTTCATGGACCGGTTTTCCCGGTAATCCGTATTTGGT (site CAGCCTTCTAC)  0.79
43. GAGACTCCATGGACCGGTTTTCCCGGTAATCCGTATTTGTA (site GAGACTCCTTA)  0.807
44. GATCTCACATGGACCGGTTTTCCCGGTAATCCGTATTTGAT (site GAACTCACTAT)  0.831
45. GAGCCTTCATGGACCGGTTTTCCCGGTAATCCGTATTTGGT (site GAGCCTTCTAC)  0.859
46. GAGACGGCATGGACCGGTTTTCCCGGTAATCCGTATTTGAG (site GAGACGGCTCT)  0.892
47. GAGAATACATGGACCGGTTTTCCCGGTAATCCGTATTTGCA (site TAGAATACTTG)  0.944
48. GATTAAACATGGACCGGTTTTCCCGGTAATCCGTATTTGCG (site GATTAAACTCG)  0.992
49. GAGCTCACATGGACCGGTTTTCCCGGTAATCCGTATTTGAC (site GAGCTCACTAT)  1
50. GAGCTCACATGGACCGGTTTTCCCGGTAATCCGTATTTGTT (site GAGCTCACTAT)  1.08
51. GATCGGACATGGACCGGTTTTCCCGGTAATCCGTATTTGAC (site GATCGGACTGT)  1.11
52. GAGGTCACATGGACCGGTTTTCCCGGTAATCCGTATTTGAT (site GAGGTCACTAT)  1.35
53. GAGGTCACATGGACCGGTTTTCCCGGTAATCCGTATTTGAT (site GAGATCACTAT)  1.36
54. GATACGTCATGGACCGGTTTTCCCGGTAATCCGTATTTGGT (site GATACGTCTAC)  1.36
55. GAGGCTACATGGACCGGTTTTCCCGGTAATCCGTATTTGTG (site GAGGCTACTCA)  1.4
56. GAGCTCACATGGACCGGTTTTCCCGGTAATCCGTATTTGTT (site GAGCTCACTAA)  1.53
57. GATAGAACATGGACCGGTTTTCCCGGTAATCCGTATTTGGC (site GATAGAACTGC)  1.7
58. GATGTAGCATGGACCGGTTTTCCCGGTAATCCGTATTTGCG (site GATGTAGCTCG)  1.72
59. GAGGGTACATGGACCGGTTTTCCCGGTAATCCGTATTTGGC (site GAGGGTACTGC)  2.1
60. GATGTGTCATGGACCGGTTTTCCCGGTAATCCGTATTTGAA (site GATGTGTCTTT)  2.22
61. GAGAATACATGGACCGGTTTTCCCGGTAATCCGTATTTGCA (site GAGAATACTTG)  2.23
62. GAGCTCACATGGACCGGTTTTCCCGGTAATCCGTATTTGTT (site GAGCTCACTAG)  2.34
63. GATGTTGCATGGACCGGTTTTCCCGGTAATCCGTATTTGCT (site GATGTTGCTAG)  2.51
64. GAGCTCACATGGACCGGTTTTCCCGGTAATCCGTATTTGAC (site GAGCTCACTGT)  2.53
65. GAGCGAGCATGGACCGGTTTTCCCGGTAATCCGTATTTGTA (site GAGCGAGCTTA)  2.57
66. GAGGTATCATGGACCGGTTTTCCCGGTAATCCGTATTTGCT (site GAGGTATCTAG)  2.57
67. GATTAGACATGGACCGGTTTTCCCGGTAATCCGTATTTGAC (site GATTAGACTGT)  2.76
68. GAGGATGCATGGACCGGTTTTCCCGGTAATCCGTATTTGTA (site GAGGATGCTTA)  2.8
